{"source": "ChEMBL document CHEMBL5131534", "about": "“Identification of 2-Pyridinylindole-Based Dual Antagonists of Toll-like Receptors 7 and 8 (TLR7/8)” (ACS Med Chem Lett, 2022)", "key": {"Mus musculus [1]": {"system": "Mus musculus", "assay": "Anti-inflammatory activity against MRL/Ipr Systemic lupus erythematosus mouse model assessed as inhibition of proteinuria at 1 mg/kg, po administered for 8 weeks and measured 24 hrs post final dose relative to control", "type": "functional", "set-up": "scale not given: the % may be the effect or the level left", "details": "time 1368 hrs"}, "Mus musculus [2]": {"system": "Mus musculus", "assay": "Anti-inflammatory activity against MRL/Ipr Systemic lupus erythematosus mouse model assessed as inhibition of anti-Sm/RNP Ab titer at 1 mg/kg, po administered for 8 weeks and measured 24 hrs post final dose relative to control", "type": "functional", "set-up": "scale not given: the % may be the effect or the level left", "details": "time 1368 hrs"}, "[3]": {"assay": "Toxicity in MRL/Ipr Systemic lupus erythematosus mouse model assessed as relative spleen weight at 1 mg/kg, po administered for 8 weeks and measured 24 hrs post final dose relative to control", "type": "organism-based", "details": "in vivo, 1368 h"}, "[4]": {"assay": "Toxicity in MRL/Ipr Systemic lupus erythematosus mouse model assessed as change in body weight at 0.1 to 20 mg/kg, po administered for 8 weeks and measured 24 hrs post final dose", "type": "organism-based", "details": "in vivo, 1368 h, dose 0.1-20 mg/kg"}, "Mus musculus [5]": {"system": "Mus musculus", "assay": "Anti-inflammatory activity against MRL/Ipr Systemic lupus erythematosus mouse model assessed as inhibition of anti-dsDNA Ab titer at 20 mg/kg, po administered for 8 weeks and measured 24 hrs post final dose relative to control", "type": "functional", "set-up": "scale not given: the % may be the effect or the level left", "details": "time 1368 hrs"}, "[6]": {"assay": "In vivo antagonist activity at TRL7 in C57BL/6 mouse assessed as inhibition of gardiquimod stimulated IL-6 production at […],po for 30 minutes and followed by gardiquimod addition measured after 90 mins by ELISA analysis relative to control", "type": "functional", "set-up": "scale not given: the % may be the effect or the level left", "details": "time 120 min, 2 h"}, "[7]": {"assay": "In vivo antagonist activity at TRL7 in C57BL/6 mouse assessed as inhibition of gardiquimod stimulated IL-6 production at 0.5 mg/kg,po for 30 minutes and followed by gardiquimod addition measured after 90 mins by ELISA analysis relative to control", "type": "functional", "set-up": "scale not given: the % may be the effect or the level left", "details": "time 120 min, 2 h"}, "Mus musculus [8]": {"system": "Mus musculus", "assay": "Anti-inflammatory activity against MRL/Ipr Systemic lupus erythematosus mouse model assessed as inhibition of proteinuria at 5 mg/kg, po administered for 8 weeks and measured 24 hrs post final dose relative to control", "type": "functional", "set-up": "scale not given: the % may be the effect or the level left", "details": "time 1368 hrs"}, "Toll-like receptor 7": {"target": "T1, Toll-like receptor 7 (Mus musculus, UniProt P58681)", "T1 sequence (P58681 whole entry)": "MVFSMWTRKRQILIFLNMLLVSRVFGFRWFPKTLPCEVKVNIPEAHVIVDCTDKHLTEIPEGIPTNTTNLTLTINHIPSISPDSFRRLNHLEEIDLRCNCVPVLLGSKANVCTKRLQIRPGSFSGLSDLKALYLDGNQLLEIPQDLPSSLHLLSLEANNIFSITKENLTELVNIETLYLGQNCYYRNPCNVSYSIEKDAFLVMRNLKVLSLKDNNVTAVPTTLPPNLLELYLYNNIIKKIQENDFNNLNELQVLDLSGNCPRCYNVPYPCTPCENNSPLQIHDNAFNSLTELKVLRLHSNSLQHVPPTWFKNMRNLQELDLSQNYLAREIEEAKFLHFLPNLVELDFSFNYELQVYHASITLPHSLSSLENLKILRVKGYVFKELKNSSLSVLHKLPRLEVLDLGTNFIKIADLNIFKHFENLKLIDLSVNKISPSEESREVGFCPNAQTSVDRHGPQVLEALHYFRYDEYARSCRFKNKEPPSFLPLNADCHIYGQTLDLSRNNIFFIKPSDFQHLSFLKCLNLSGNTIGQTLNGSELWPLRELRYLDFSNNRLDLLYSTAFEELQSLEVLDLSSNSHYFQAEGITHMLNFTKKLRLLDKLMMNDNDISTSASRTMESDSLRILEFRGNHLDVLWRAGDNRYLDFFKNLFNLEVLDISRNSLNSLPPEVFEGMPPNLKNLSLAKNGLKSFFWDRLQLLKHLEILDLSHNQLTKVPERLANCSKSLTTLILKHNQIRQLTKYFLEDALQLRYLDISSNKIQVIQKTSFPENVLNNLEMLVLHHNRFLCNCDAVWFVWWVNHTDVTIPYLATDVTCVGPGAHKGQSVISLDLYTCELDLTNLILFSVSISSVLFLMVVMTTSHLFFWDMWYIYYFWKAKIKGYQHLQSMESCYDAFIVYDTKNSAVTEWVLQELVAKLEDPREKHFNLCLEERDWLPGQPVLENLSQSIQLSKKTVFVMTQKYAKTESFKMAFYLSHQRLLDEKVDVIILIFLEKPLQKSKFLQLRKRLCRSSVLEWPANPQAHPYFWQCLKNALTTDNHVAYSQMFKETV", "assay": "Antagonist activity at gardiquimod stimulated TRL7 in mouse whole blood assessed as inhibition of IL-6 production by ELISA analysis", "type": "tissue-based"}, "Toll-like receptor 8": {"target": "T2, Toll-like receptor 8 (Homo sapiens, UniProt Q9NR97)", "T2 sequence (Q9NR97 whole entry)": "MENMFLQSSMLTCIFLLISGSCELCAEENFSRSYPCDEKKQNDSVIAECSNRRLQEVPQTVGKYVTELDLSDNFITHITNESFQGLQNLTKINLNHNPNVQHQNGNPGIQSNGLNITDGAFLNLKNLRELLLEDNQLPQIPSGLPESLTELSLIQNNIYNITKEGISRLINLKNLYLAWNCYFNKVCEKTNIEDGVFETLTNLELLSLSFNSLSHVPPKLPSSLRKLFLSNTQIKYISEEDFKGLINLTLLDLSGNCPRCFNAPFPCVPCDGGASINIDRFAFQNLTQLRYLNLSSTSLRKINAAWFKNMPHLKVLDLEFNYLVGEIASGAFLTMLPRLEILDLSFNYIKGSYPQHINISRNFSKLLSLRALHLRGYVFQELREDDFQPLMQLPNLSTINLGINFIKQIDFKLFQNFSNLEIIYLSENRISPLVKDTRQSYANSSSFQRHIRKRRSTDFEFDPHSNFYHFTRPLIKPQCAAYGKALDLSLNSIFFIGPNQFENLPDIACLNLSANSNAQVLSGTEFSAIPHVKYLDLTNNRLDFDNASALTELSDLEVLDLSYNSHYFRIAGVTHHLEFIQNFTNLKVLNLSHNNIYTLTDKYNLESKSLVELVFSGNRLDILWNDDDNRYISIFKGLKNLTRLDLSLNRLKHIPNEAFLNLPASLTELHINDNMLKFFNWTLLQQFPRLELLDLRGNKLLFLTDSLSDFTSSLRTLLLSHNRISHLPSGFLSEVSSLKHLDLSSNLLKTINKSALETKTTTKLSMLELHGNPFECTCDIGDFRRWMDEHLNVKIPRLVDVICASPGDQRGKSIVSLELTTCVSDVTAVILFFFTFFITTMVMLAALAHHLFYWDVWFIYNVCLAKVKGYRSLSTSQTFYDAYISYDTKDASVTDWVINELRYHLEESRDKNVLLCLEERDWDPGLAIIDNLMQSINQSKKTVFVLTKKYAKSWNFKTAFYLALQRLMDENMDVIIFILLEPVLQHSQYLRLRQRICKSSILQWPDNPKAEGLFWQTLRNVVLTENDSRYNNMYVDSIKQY"}, "[9]": {"assay": "Toxicity in MRL/Ipr Systemic lupus erythematosus mouse model assessed as drug tolerability at 0.1 to 20 mg/kg, po administered for 8 weeks and measured 24 hrs post final dose", "type": "organism-based", "details": "in vivo, 1368 h, dose 0.1-20 mg/kg"}}, "data": [{"smiles": "Cc1cc(-c2[nH]c3ccc(C4CCNCC4)cc3c2C(C)C)cc(C)n1", "values": [{"measurement": "Activity", "setting": "Mus musculus [1]", "value": 92, "unit": "%"}, {"measurement": "Activity", "setting": "Mus musculus [2]", "value": 84, "unit": "%"}, {"measurement": "Activity", "setting": "[3]", "value": 48, "unit": "%"}, {"measurement": "Activity", "setting": "[4]", "value": "Non-Toxic"}, {"measurement": "Activity", "setting": "Mus musculus [5]", "value": 53, "unit": "%"}, {"measurement": "Activity", "setting": "[6]", "value": 16, "unit": "%"}, {"measurement": "Activity", "setting": "[7]", "value": 98, "unit": "%"}, {"measurement": "Activity", "setting": "Mus musculus [8]", "value": 92, "unit": "%"}, {"measurement": "IC50", "setting": "Toll-like receptor 7", "value": 0.3, "unit": "nM"}, {"measurement": "IC50", "setting": "Toll-like receptor 8", "value": 4.2, "unit": "nM"}, {"measurement": "Activity", "setting": "[9]", "value": "Non-Toxic"}]}]}
